PMC6010027, “Iodine-mediated one-pot intramolecular decarboxylation domino reaction for accessing functionalised 2-(1,3,4-oxadiazol-2-yl)anilines with carbonic anhydrase inhibitory action” (Journal of Enzyme Inhibition and Medicinal Chemistry, 2018)
pKi: −log10 of the molar value.

Assays:
Assay in all cases: stopped-flow CO2 hydrase assay
Format in all cases: biochemical
[1] = molecular target: T1, hCA II (Homo sapiens, UniProt P00918)
T1 construct: gene CA2; recombinant; cytosolic isoform
From the text: stopped-flow CO2 hydrase assay on hCA II

[2] = molecular target: T2, hCA IV (Homo sapiens, UniProt P22748)
T2 construct: gene CA4; recombinant; membrane-anchored isoform
T2 sequence (P22748 19-284): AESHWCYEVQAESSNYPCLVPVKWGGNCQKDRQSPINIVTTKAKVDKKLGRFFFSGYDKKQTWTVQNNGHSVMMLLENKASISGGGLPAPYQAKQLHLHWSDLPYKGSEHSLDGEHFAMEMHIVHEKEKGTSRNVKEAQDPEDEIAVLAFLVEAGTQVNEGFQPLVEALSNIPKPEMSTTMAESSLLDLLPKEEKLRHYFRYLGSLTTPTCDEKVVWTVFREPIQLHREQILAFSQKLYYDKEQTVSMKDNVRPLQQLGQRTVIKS
From the text: stopped-flow CO2 hydrase assay on hCA IV

[3] = molecular target: T3, hCA I (Homo sapiens, UniProt P00915)
T3 construct: gene CA1; recombinant; cytosolic isoform
T3 sequence (P00915 2-261): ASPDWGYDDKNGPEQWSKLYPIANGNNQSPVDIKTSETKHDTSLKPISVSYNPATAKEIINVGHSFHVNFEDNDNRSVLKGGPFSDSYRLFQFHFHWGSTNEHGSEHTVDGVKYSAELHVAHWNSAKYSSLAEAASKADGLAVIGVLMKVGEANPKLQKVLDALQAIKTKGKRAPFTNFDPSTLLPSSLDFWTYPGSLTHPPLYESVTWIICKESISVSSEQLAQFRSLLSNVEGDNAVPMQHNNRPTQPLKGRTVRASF
From the text: stopped-flow CO2 hydrase assay on hCA I

[4] = molecular target: T4, hCA IX (Homo sapiens, UniProt Q16790)
T4 construct: gene CA9; recombinant; transmembrane isoform
From the text: stopped-flow CO2 hydrase assay on hCA IX

| pKi [1] | pKi [2] | pKi [3] | pKi [4] | Structure (SMILES) |
| --- | --- | --- | --- | --- |
| 7.79 | 5.23 | 6.49 | 6.55 | COc1ccc(N)c(-c2nnc(-c3ccc(S(N)(=O)=O)cc3)o2)c1 [8c, 4-(5-(2-Amino-5-methoxyphenyl)-1,3,4-oxadiazol-2-yl)benzenesulfonamide] |
| 7.33 | 6.28 | 5.48 | 5.54 | Nc1ccccc1-c1nnc(-c2cccc(S(N)(=O)=O)c2)o1 [8j, 3-(5-(2-Aminophenyl)-1,3,4-oxadiazol-2-yl)benzenesulfonamide] |
| 7.19 | 6.36 | 5.23 | 5.53 | Cc1ccc(N)c(-c2nnc(-c3cccc(S(N)(=O)=O)c3)o2)c1 [8k, 3-(5-(2-Amino-5-methylphenyl)-1,3,4-oxadiazol-2-yl)benzenesulfonamide] |
| 6.29 | 6.23 | 5.45 | 5.57 | COc1ccc(N)c(-c2nnc(-c3cccc(S(N)(=O)=O)c3)o2)c1 [8l, 3-(5-(2-Amino-5-methoxyphenyl)-1,3,4-oxadiazol-2-yl)benzenesulfonamide] |
| 6.51 | 6.26 | 6.13 | 5.59 | Nc1ccc(F)cc1-c1nnc(-c2cccc(S(N)(=O)=O)c2)o1 [8m, 3-(5-(2-Amino-5-fluorophenyl)-1,3,4-oxadiazol-2-yl)benzenesulfonamide] |
| 6.32 | 5.03 | 6.46 | 6.59 | Nc1ccc(OC(F)(F)F)cc1-c1nnc(-c2cccc(S(N)(=O)=O)c2)o1 [8n, 3-(5-(2-Amino-5-(trifluoromethoxy)phenyl)-1,3,4-oxadiazol-2-yl)benzenesulfonamide] |

More lines, now with the values behind:

| Structure (SMILES) | pKi [1] | pKi [2] | pKi [3] | pKi [4] |
| --- | --- | --- | --- | --- |
| Nc1ccccc1-c1nnc(-c2ccc(S(N)(=O)=O)cc2)o1 [8a, 4-(5-(2-Aminophenyl)-1,3,4-oxadiazol-2-yl)benzenesulfonamide] | 7.47 | 5.13 | 6.65 | 5.72 |
| Cc1ccc(N)c(-c2nnc(-c3ccc(S(N)(=O)=O)cc3)o2)c1 [8b, 4-(5-(2-Amino-5-methylphenyl)-1,3,4-oxadiazol-2-yl)benzenesulfonamide] | 7.29 | 5.25 | 6.57 | 5.80 |
| Nc1ccc(F)cc1-c1nnc(-c2ccc(S(N)(=O)=O)cc2)o1 [8d, 4-(5-(2-Amino-5-fluorophenyl)-1,3,4-oxadiazol-2-yl)benzenesulfonamide] | 7.36 | 5.20 | 6.13 | 5.79 |
| Nc1ccc(Cl)cc1-c1nnc(-c2ccc(S(N)(=O)=O)cc2)o1 [8e, 4-(5-(2-Amino-5-chlorophenyl)-1,3,4-oxadiazol-2-yl)benzenesulfonamide] | 6.65 | 5.08 | 5.46 | 5.63 |
| Nc1ccc(OC(F)(F)F)cc1-c1nnc(-c2ccc(S(N)(=O)=O)cc2)o1 [8f, 4-(5-(2-Amino-5-(trifluoromethoxy)phenyl)-1,3,4-oxadiazol-2-yl)benzenesulfonamide] | 7.03 | 5.66 | 6.15 | 5.61 |
| Nc1c(F)cccc1-c1nnc(-c2ccc(S(N)(=O)=O)cc2)o1 [8g, 4-(5-(2-Amino-3-fluorophenyl)-1,3,4-oxadiazol-2-yl)benzenesulfonamide] | 8.19 | 5.69 | 7.09 | 5.64 |
| Cc1cc(C)c(N)c(-c2nnc(-c3ccc(S(N)(=O)=O)cc3)o2)c1 [8h, 4-(5-(2-Amino-3,5-dimethylphenyl)-1,3,4-oxadiazol-2-yl)benzenesulfonamide] | 7.75 | 5.12 | 7.05 | 5.69 |
| Nc1c(Cl)cc(Cl)cc1-c1nnc(-c2ccc(S(N)(=O)=O)cc2)o1 [8i, 4-(5-(2-Amino-3,5-dichlorophenyl)-1,3,4-oxadiazol-2-yl)benzenesulfonamide] | 7.33 | 5.17 | 6.09 | 5.56 |
| Nc1c(F)cccc1-c1nnc(-c2cccc(S(N)(=O)=O)c2)o1 [8o, 3-(5-(2-Amino-3-fluorophenyl)-1,3,4-ovxadiazol-2-yl)benzenesulfonamide] | 7.06 | 6.28 | 6.14 | 6.85 |
